From US20080063642A1, “Methods of using (+)-1,4-dihydro-7-[(3S,4S)-3-methoxy-4-(methylamino)-1-pyrrolidinyl]-4-oxo-1-(2-thiazolyl)-1,8-naphthyridine-3-carboxylic acid for treatment of certain hematologic disorders” (priority 2006, published 2008)
Values after ≈ are worked out from the molar mass of the structure shown. Read-outs that look alike come from different tables or passages of the source. Marks after values point to notes of the source that are not given here.

Columns and labels:
[1] = test system: HL-60 (promyelocytic leukemia); assay: MTT cell viability assay, HL-60; type: cell-based; settings: Homo sapiens, MTT after 72 hours
Description: (§1) The following cell lines were used in this assay: HL-60 (promyelocytic leukemia); Jurkat (T cell leukemia); CCRF-CEM (lymphoblastic leukemia); CEM/C2 (camptothecan resistant derivative of CCRF-CEM).
(§2) Cells were seeded in 96 wells plates at 3000 cells per well and incubated for 16 hours. Compound dilutions were performed in DMSO from 10 mM with 3 fold dilutions. Titrations were diluted 1:100 in media to achieve final compound concentrations. The 96 well plates were aspirated and compound dilutions in media were added ([…]). MTT analysis was carried out after 72 hours of incubation at 37° C. Briefly, […] of MTT solution was added to each well. Cells were incubated at 37° C. for 1-2 hours. Cells were lysed with the addition of […] cell lysis buffer and MTT was solubilized overnight at 37° C. Plates were read on a spectromax machine with an absorbance measurement at […]. IC50's were calculated (data provided in Table 1) using regression analysis within GraphPad Prism.

Jurkat (T cell leukemia) = assay: MTT cell viability assay, Jurkat; type: cell-based; settings: Homo sapiens, MTT after 72 hours
Description: as §1, §2

[2] = test system: CCRF-CEM (lymphoblastic leukemia); assay: MTT cell viability assay, CCRF-CEM; type: cell-based; settings: Homo sapiens, MTT after 72 hours
Description: as §1, §2

[3] = test system: CEM/C2 (camptothecan resistant derivative of CCRF-CEM); assay: MTT cell viability assay, CEM/C2; type: cell-based; settings: Homo sapiens, MTT after 72 hours
Description: as §1, §2

[4] = test system: CCRF-CEM acute lymphoblastic leukemia tumor; assay: CCRF-CEM xenograft model; type: in vivo; settings: CCRF-CEM; 25 mg/kg q7d × 3, IV; 20 or 21 days after start
Description: CCRF-CEM acute lymphoblastic leukemia tumor lobes of 2-3 mm square were transplanted subcutaneously into nude mice. Tumors were allowed to grow to approximately 8-20 mm in diameter. […] Acceptable toxicity was defined as a mean group weight loss of 30% or less and not more than one toxic death among 6 treated animals. Anti-tumor activities of the drugs were assessed 20 or 21 days after the start of administration. FIGS. 1-2 and Table 2 provides data for tumor inhibition rate (IR) and survival ratio in the CCRF-CEM and LM3-Jck xenograft models.

[5] = test system: LM3-Jck human malignant lymphoma tumor; assay: LM3-Jck xenograft model; type: in vivo; settings: for IR (%) tumor inhibition rate: LM3-JcK, 21 days after start
Description: LM3-Jck human malignant lymphoma tumor lobes (2-3 mm square) were transplanted subcutaneously into nude mice. Tumors were allowed to grow to approximately 7-14 mm in diameter. […] Acceptable toxicity was defined as a mean group weight loss of 30% or less and not more than one toxic death among 6 treated animals. Anti-tumor activities of the drugs were assessed 21 days after the start of administration.

bone marrow [6] = assay: Bone marrow/cytology assay (Example 4): bone marrow cellularity; type: in vivo, Female CD-1 mice
Description: (§3) Blood was drawn on days 6, 8, and 12 post initial injection for hematological analysis. Femurs were extracted on day 6 fixed in Streck and H&E stained prior to bone marrow cellularity analysis. […] At 20 mg/kg, cellularity was reduced to 7.5%, while circulating neutrophils were reduced from a pre-dose level of […] to a nadir of 51±24 cells/mL blood on day 8. Absolute neutrophil counts subsequently rebounded and soon returned to normal levels. Total WBCs also reached a nadir on day 8, but returned to normal levels.

[7] = test system: circulating neutrophils, WBCs, platelets; design: species or system Female CD-1 mice; settings: mouse, in vivo
Description: as §3

[8] = Bone marrow/cytology assay (Example 4): body weight loss; type: in vivo, Female CD-1 mice; settings: all dose groups, 5-20 mg/kg
Description: as §3
FIGS. 5 and 6 show neutrophil and total white blood cell counts from blood samples on day 8 post initial injection. […] Body weight loss was tolerable across all dose groups.

[9] = test system: peripheral neutrophils, white blood cells, platelets; assay: Combination dosing SNS-595 and Ara-C (Example 5): peripheral cytology; type: in vivo, nu/nu mice; settings: mouse, in vivo
Description: At various time points described in Table 5, mice were euthanized by CO2 asphyxiation in accordance to Institutional Animal Care and Use Committee (IACUC) guidelines. Blood was collected through cardiac tap and transferred to EDTA tubes. The analysis of murine blood CBC and differential counts for samples in these tubes was conducted (at Quality Clinical Labs, Moutainview). Statistical significance was determined by one-tailed student t-test, using Welch's correction for unequal variances.

femoral bone marrow = assay: Combination dosing SNS-595 and Ara-C (Example 5): femoral bone marrow cellularity; type: in vivo, nu/nu mice
From the text: Femurs were harvested for histological evaluation. The femur was placed in Streck fixative, paraffin embedded, sectioned, transferred to slides, and H&E stained (at BioPathology Sciences). Immunohistochemical slides were processed and analyzed for percent cellularity of intact bone marrow.

bone marrow [10] = assay: Monotherapy and combination with Ara-C (Example 6): bone marrow total cellularity; type: in vivo, Female CD-1 mice
Description: Blood was analyzed at Quality Control Labs (Mountain View, Calif.) for complete blood count and differential count. Bone marrow smears from femurs on Day 6 and Day 12 were prepared and geimsa stained for differential counts. Femurs were also placed in Streck fixative, processed, sectioned and H&E stained. Femur and bone marrow smears were analyzed at BioPathology Sciences (South San Francisco, Calif.) for total cellularity and differential count. […] The compounds were administered on Day 0 and Day 4.

[11] = test system: myeloid cell lineages in bone marrow; assay: Monotherapy and combination with Ara-C (Example 6): bone marrow smears, differential counts; type: in vivo, Female CD-1 mice; settings: SNS-595 treated animals; Day 6
Description: Combination: […] Blood was analyzed at Quality Control Labs (Mountain View, Calif.) for complete blood count and differential count. Bone marrow smears from femurs on Day 6 and Day 12 were prepared and geimsa stained for differential counts. Femurs were also placed in Streck fixative, processed, sectioned and H&E stained. Femur and bone marrow smears were analyzed at BioPathology Sciences (South San Francisco, Calif.) for total cellularity and differential count.

[12] = mouse, in vivo, iv
Description: The effects of dosing were studied on changes in body weight, peripheral cytology, and femoral bone marrow cellularity over time as described below.
Before beginning the study, all animals were allowed to acclimatize for 3 days from shipping related stress and the health of the mice was assessed daily by observation. Purified water (reverse osmosis) and irradiated food (PicoLab Rodent Diet 20, #5053; Dean's Animal Feeds, San Carlos, Calif.) were provided ad libitum, and the animals were kept on a 12 hour light and dark cycle.

[13] = CD-1 mouse model; q4d × 2
[14] = Group 4: SNS-595 15 mg/kg IV q4d × 2

CN[C@H]1CN(c2ccc3c(=O)c(C(=O)O)cn(-c4nccs4)c3n2)C[C@@H]1OC [SNS-595, (+)-1,4-dihydro-7-[(3S,4S)-3-methoxy-4-(methylamino)-1-pyrrolidinyl]-4-oxo-1-(2-thiazolyl)-1,8-naphthyridine-3-carboxylic acid]
IC50 [1]: 0.053 µg/mL (≈ 0.132 µM) | IC50 (Jurkat (T cell leukemia)): 0.023 µg/mL (≈ 0.0573 µM) | IC50 [2]: 0.018 µg/mL (≈ 0.0448 µM) | IC50 [3]: 0.01 µg/mL (≈ 0.0249 µM) | IR (%) tumor inhibition rate [4]: 98.1* % | IR (%) tumor inhibition rate ([5]; 20 mg/kg q7d × 3, IV): 98.9* % | IR (%) tumor inhibition rate ([5]; 25 mg/kg q7d × 3, IV): 98.5* % | antitumor activity ([5]; LM-3 Jck malignant lymphoma, 20 and 25 mg/kg): complete tumor regressions | bone marrow cellularity (bone marrow [6]; 20 mg/kg IV Day 0 and Day 4, femurs day 6): 7.5% | bone marrow at 12 days post initial injection (bone marrow [6]; 20 mg/kg, day 12): bone marrow rebound | bone marrow cellularity, dose response (bone marrow [6]; 5, 10, 15, 20 mg/kg IV Day 0 and Day 4, two days after second administration): dose-dependent reduction in cellularity | platelet response [7]: minor platelet response | day of total WBC nadir ([7]; iv): 8 days | body weight loss [8]: tolerable | circulating white blood cells, dose response [9]: dose-dependent reduction | day by which neutrophils returned to normal levels [9]: ≤ 12 days | day by which platelets returned to normal levels [9]: ≤ 12 days | number of neutrophils versus vehicle group [9]: significantly lower than the vehicle group | recovery of white blood cells [9]: failed to return to normal levels by day 18 | number of platelets versus vehicle group ([9]; 5 mg/kg): not significantly decrease | number of circulating white blood cells versus vehicle group ([9]; 10 mg/kg): significantly lower than the vehicle group | number of white blood cells versus vehicle group ([9]; 15 mg/kg): significantly lower than the vehicle group | total cellularity, femur cross section of representative animal (femoral bone marrow; Day 6, SNS-595 5 mg/kg q4d ×2 IV, Animal #23): 60% | total cellularity, femur cross section of representative animal (femoral bone marrow; Day 6, SNS-595 10 mg/kg q4d ×2 IV, Animal #44): 50% | total cellularity, femur cross section of representative animal (femoral bone marrow; Day 6, SNS-595 15 mg/kg q4d ×2 IV, Animal #63): 20% | total cellularity, femur cross section of representative animal (femoral bone marrow; Day 12, SNS-595 15 mg/kg q4d ×2 IV, Animal #73): 100% | Average Total Cellularity Day 6 (femoral bone marrow; Group 2: SNS-595 5 mg/kg IV q4d × 2): 70% | Average Total Cellularity Day 6 (femoral bone marrow; Group 3: SNS-595 10 mg/kg IV q4d × 2): 56% | Average Total Cellularity Day 6 (femoral bone marrow; [14]): 26% | Average Total Cellularity Day 12 (femoral bone marrow; [14]): 100% | reduction in cellularity (femoral bone marrow; SNS-595 10 mg/kg IV single agent): 44% | bone marrow cellularity, dose response (femoral bone marrow; SNS-595 single agent 5, 10, 15 mg/kg): dose-dependent reduction in bone marrow cellularity | Total Cellularity (Avg) Exp #2 (bone marrow [10]; SNS-595 10 mg/kg q4d × 2): 54% | Total Cellularity (Avg) Exp #1 (bone marrow [10]; SNS-595 10 mg/kg q4d × 2, two days after completion of treatment, 10 mg/kg): 56% | Total Cellularity (Avg) Exp #2 (bone marrow [10]; SNS-595 20 mg/kg q4d × 2): 18% | immature neutrophils in bone marrow smears [11]: significant increase | % of Body Wt Nadir ([12]; 5 mg/kg): 0% | Day of Body Wt Nadir ([12]; 5 mg/kg): 0 days | % of Body Wt Nadir ([12]; 10 mg/kg): 0% | Day of Body Wt Nadir ([12]; 10 mg/kg): 0 days | % of Body Wt Nadir ([12]; 15 mg/kg): −2.8% | Day of Body Wt Nadir ([12]; 15 mg/kg): 7 days | maximum tolerated dose (MTD) [13]: SNS-595 20 mg/kg q4d × 2*
